Data reported in PMC8854749, “Celastrol Inhibits Canine Mammary Tumor Cells by Inducing Apoptosis via the Caspase Pathway” (Frontiers in Veterinary Science, 2022).

Columns and labels:
Type in all cases: cell-based, canine
[1] = system: CMT-7364 cells; test: Western blot of apoptosis- and cell cycle-related proteins; details: different concentrations, 24 h, Western blot
Procedure: (§1) The CMT-7364 and CIPp cells were treated with different concentrations of Caspase inhibitor Z-V-F and/or celastrol for 24 h, and the cells were lysed with RIPA lysis buffer on ice. The protein was extracted according to the manufacturer's instructions, and protein concentration was determined by the BCA protein concentration assay kit. The loading amount of 20 μg protein in each group was separated by 10% SDS-PAGE, the separated protein was transferred to polyvinylidene fluoride membrane. After blocking with 5% skimmed milk for 1 h, the membrane was washed two times with 0.5% PBS-Tween 20 (PBS-T), then the membrane with the primary antibody was incubated overnight in a shaker at 4°C. Primary antibodies include β-actin (1:2,000), p65 (1:1,000), NF-κB (1:1,000), Caspase-9 (1:1,000), Caspase-3 (1:1,000), Bax (1:2,000), Bcl-2 (1:1,000), Cyclin D1 (1:1,000), p21 (1:1,000), and p27 (1:1,000). After washing 3 times with PBS-T buffer for 10 min each time, the membrane was incubated with HRP-conjugated secondary antibody at 37°C for 30 min. Secondary antibodies include anti-mouse IgG antibody (1:5,000), anti-rabbit IgG antibody (1:2,000~1:4,000). The membrane was washed 3 times with PBS-T for 10 min each time. Finally, it was detected by an enhanced chemiluminescence detection system, and the results were quantified by ImageJ.

[2] = system: CIPp cells; test: as above; details: different concentrations, 24 h, Western blot
Procedure: as §1

[3] = system: CMT-7364 cells; test: Annexin V-FITC/PI apoptosis flow cytometry; details: 0.3 and 0.9 μM, 24 h, vs control group
Procedure: (§2) CMT-7364 and CIPp cells were seeded in a 6-well plate at a concentration of 1 × 10^5 cells/well, treated with different concentrations of celastrol (0, 0.3, and 0.9 μM) for 24 h. The cell culture medium was collected, the cells were washed once with PBS, digested with 0.25% trypsin, the cells were resuspended with the collected cell culture medium and kept after centrifugation. The cells were stained with Annexin V-FITC Apoptosis Detection Kit, and Guava easy Cyte5 (Merck millipore, United States) was used to detect the stained cells, and the data were analyzed by using Flow Jo software (version 10.0.7, United States).

[4] = system: CIPp cells; test: Annexin V-FITC/PI apoptosis flow cytometry; details: 0.3 and 0.9 μM, 24 h, vs control group
Procedure: as §2

[5] = system: CMT-7364 cells; test: Cell invasion (transwell, Matrigel) assay
Procedure: (§3) The transwell chambers were placed in a 24-well cell culture plate, each well was plated with 100 μl serum-free medium containing 5% Matrigel on the upper chamber, and placed in incubator at 37°C for 2 h. The excess media were pipetted out of the upper chamber, 100 μl of cell suspension with or without celastrol treatment (0.3 μM or 0.9 μM) were added at a concentration of 1 × 10^4 cells/ml in each upper chamber; the lower chambers were filled with 600 μl medium containing 10% serum for each well. […] PBS was used to rinse the chambers for 2 min with 3 times repeated, then the cells were fixed with methanol for 10 min, followed by distilled water rinsed for 2 min with 3 times repeated. Finally, cells were dyed with 0.1% crystal violet at room temperature for 20 min, and washed with distilled water until the water is colorless. Images of cell invasion were taken with an inverted microscope, and the stained cells represented the invasion cells were counted by a cell counter to analyze the cell invasion rate. The relative invasion rate = (cell number celastrol /cell number control) × 100%.

[6] = system: CIPp cells; test: Cell invasion (transwell, Matrigel) assay
Procedure: as §3

[7] = system: CMT-7364 cells; test: Cell Counting Kit-8 (CCK-8) cell viability; details: for IC50: Canis lupus familiaris, CCK-8
Procedure: (§4) CMT-7364, CIPp, and MDCK cells were plated in a 96-well plate with 2,000 cells per well and maintained in 5% CO2 at 37°C for 24 h until the cells adhered to the bottom. Then the medium was removed, the new media containing different concentrations (0, 0.1, 0.4, 0.6, 0.8, 1.2, and 1.6 μM) of celastrol were added, and incubated for 12, 24, 36, and 48 h. Ten microliters of the cell counting kit-8 (CCK-8) were added to each well for 1 h incubation. At each time point, the OD value was read by a microplate reader at 450 nm wavelength, and the cell viability with each drug concentration at different time points was calculated: cell relative viability=[(OD 450celastrol-OD 450blank) / (OD 450control-OD 450blank)] × 100%.

[8] = system: CIPp cells; test: Cell Counting Kit-8 (CCK-8) cell viability; details: for IC50: Canis lupus familiaris, CCK-8
Procedure: as §4

[9] = system: CMT-7364 cells; test: Annexin V-FITC/PI apoptosis detection, fluorescence microscope; details: 0.3 μM or 0.9 μM, 24 h, vs control group
Procedure: (§5) CMT-7364 and CIPp cells were seeded in a 6-well plate at a concentration of 1 × 10^5 cells/well, treated with different concentrations of celastrol (0, 0.3, 0.9 μM) for 24 h. Then cells were double-stained by Annexin V-FITC/PI, incubating at room temperature for 20 min in the dark, followed by observing with a fluorescence microscope. Green fluorescence represents Annexin V-FITC staining positive, and red fluorescence represents PI staining positive. Apoptotic cells were single-stained by green fluorescence, late apoptotic or necrotic cells were double-stained by green and red fluorescence, and normal cells were not stained by fluorescence. Finally, pictures of the cells were taken by a fluorescence microscope.

[10] = system: CIPp cells; test: as above; details: 0.3 μM or 0.9 μM, 24 h, vs control group
Procedure: as §5

[11] = 0.9 μM, 24 h, relative to control
[12] = 0.3 and 0.9 μM, vs control group

Q: `CC1=C(O)C(=O)C=C2C1=CC=C1[C@@]2(C)CC[C@@]2(C)[C@@H]3C[C@](C)(C(=O)O)CC[C@]3(C)CC[C@]12C` [celastrol, Celastrol] was tested. Which “protein expression level of Bax” value [1] did it give?
A: significantly up-regulated

Q: What about the “protein expression level of Bcl-2” value [1] of the same compound?
A: significantly down-regulated

Q: What about the “protein expression level of Cleaved-Caspase-3” value [1] of the same compound?
A: significantly up-regulated

Q: What about the “protein expression level of Cleaved-Caspase-9” value [1] of the same compound?
A: significantly up-regulated

Q: What about the “protein expression level of Cyclin D1” value [1] of the same compound?
A: down-regulated

Q: And the “protein expression level of NF-kB” value [1]?
A: significantly down-regulated

Q: What about the “protein expression level of p21” value [1] of the same compound?
A: up-regulated

Q: And the “protein expression level of p27” value [1]?
A: up-regulated

Q: And the “protein expression level of phosphorylated p65” value [1]?
A: significantly down-regulated

Q: What about the “protein expression level of Bax” value [2] of the same compound?
A: significantly up-regulated

Q: And the “protein expression level of Bcl-2” value [2]?
A: significantly down-regulated

Q: And the “protein expression level of Cleaved-Caspase-3” value [2]?
A: significantly up-regulated

Q: What about the “protein expression level of Cleaved-Caspase-9” value [2] of the same compound?
A: significantly up-regulated

Q: What about the “protein expression level of Cyclin D1” value [2] of the same compound?
A: down-regulated

Q: And the “protein expression level of NF-kB” value [2]?
A: significantly down-regulated

Q: What about the “protein expression level of p21” value [2] of the same compound?
A: up-regulated

Q: And the “protein expression level of p27” value [2]?
A: up-regulated

Q: What about the “protein expression level of phosphorylated p65” value [2] of the same compound?
A: significantly down-regulated

Q: And the “percentages of early and late apoptotic cells” value [3]?
A: increased in a dose-dependent manner

Q: What about the “percentages of early and late apoptotic cells” value [4] of the same compound?
A: increased in a dose-dependent manner

Q: What about the invasion rate [5, 11] of the same compound?
A: 28.00 ± 1.53%

Q: And the invasion ability [5, 12]?
A: inhibited the invasion ability of CMT-7364 and CIPp cells in a dose-dependent manner

Q: And the invasion rate [6, 11]?
A: 32.00 ± 1.73%

Q: What about the invasion ability [6, 12] of the same compound?
A: inhibited the invasion ability of CMT-7364 and CIPp cells in a dose-dependent manner

Q: What about the cell viability ([7]; 0.1-1.6 μM, 12-48 h) of the same compound?
A: decreased the viability of the cells in a dose- and time-dependent manner

Q: What about the IC50 ([7]; 24 h) of the same compound?
A: 1.24 µM

Q: And the IC50 ([7]; 48 h)?
A: 1.01 µM

Q: What about the proliferation ([7]; concentration <1.2 μM) of the same compound?
A: significantly inhibited

Q: What about the cell viability ([8]; 0.1-1.6 μM, 12-48 h) of the same compound?
A: decreased the viability of the cells in a dose- and time-dependent manner

Q: And the IC50 ([8]; 24 h)?
A: 1.16 µM

Q: And the IC50 ([8]; 48 h)?
A: 0.968 µM

Q: What about the proliferation ([8]; concentration <1.2 μM) of the same compound?
A: significantly inhibited

Q: What about the “green fluorescence (Annexin V-FITC, apoptotic cells)” value [9] of the same compound?
A: increased

Q: And the “green fluorescence (Annexin V-FITC, apoptotic cells)” value [10]?
A: increased
